25 compounds from ChEMBL document CHEMBL2034891, “Discovery, design and synthesis of Y-shaped peroxisome proliferator-activated receptor δ agonists as potent anti-obesity agents in vivo” (Eur J Med Chem, 2012) can be followed below.

In experiment [1] the target is T1, Peroxisome proliferator-activated receptor gamma (Homo sapiens, UniProt P37231).
T1 sequence (P37231 whole entry): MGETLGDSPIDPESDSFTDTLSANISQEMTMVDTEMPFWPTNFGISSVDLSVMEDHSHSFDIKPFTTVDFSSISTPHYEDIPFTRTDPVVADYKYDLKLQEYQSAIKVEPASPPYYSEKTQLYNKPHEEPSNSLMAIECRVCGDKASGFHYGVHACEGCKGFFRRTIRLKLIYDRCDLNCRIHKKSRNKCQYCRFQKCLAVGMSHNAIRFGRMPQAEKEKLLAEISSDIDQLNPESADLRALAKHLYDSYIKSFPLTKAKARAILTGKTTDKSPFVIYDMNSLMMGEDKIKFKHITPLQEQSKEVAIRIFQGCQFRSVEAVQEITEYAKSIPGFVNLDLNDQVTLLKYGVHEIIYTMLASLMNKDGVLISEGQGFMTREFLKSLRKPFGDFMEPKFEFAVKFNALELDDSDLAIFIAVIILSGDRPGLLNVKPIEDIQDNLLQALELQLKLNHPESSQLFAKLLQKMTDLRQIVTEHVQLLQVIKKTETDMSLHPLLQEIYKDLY
The experiment is described as follows: Transactivation activity at human PPARgamma expressed in african green monkey CV1 cells after 24 hrs by luciferase reporter gene assay. Format: cell-based, CV-1.

For a further experiment, the species on record is Homo sapiens. The experiment in a line: Selectivity ratio of EC50 for human PPARalpha to EC50 for human PPARdelta.
Experiment [2] has as its target T2, Peroxisome proliferator-activated receptor alpha (Homo sapiens, UniProt Q07869).
T2 sequence (Q07869 whole entry): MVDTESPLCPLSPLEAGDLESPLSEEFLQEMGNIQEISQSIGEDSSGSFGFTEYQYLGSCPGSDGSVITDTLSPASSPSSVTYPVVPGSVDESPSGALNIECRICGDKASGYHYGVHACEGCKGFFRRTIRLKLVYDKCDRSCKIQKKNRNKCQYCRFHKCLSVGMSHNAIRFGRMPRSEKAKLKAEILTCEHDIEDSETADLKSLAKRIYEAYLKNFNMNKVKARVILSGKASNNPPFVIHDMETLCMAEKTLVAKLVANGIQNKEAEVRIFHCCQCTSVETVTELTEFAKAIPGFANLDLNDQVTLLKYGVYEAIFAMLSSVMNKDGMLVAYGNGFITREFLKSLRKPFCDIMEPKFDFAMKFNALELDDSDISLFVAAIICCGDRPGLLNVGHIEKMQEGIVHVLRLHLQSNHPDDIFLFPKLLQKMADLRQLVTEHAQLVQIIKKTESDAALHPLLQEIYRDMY
The experiment in a line: Transactivation activity at human PPARalpha expressed in african green monkey CV1 cells after 24 hrs by luciferase reporter gene assay. Format: cell-based, CV-1.

Experiment [3] has as its target T3, Peroxisome proliferator-activated receptor delta (Homo sapiens, UniProt Q03181).
T3 sequence (Q03181 whole entry): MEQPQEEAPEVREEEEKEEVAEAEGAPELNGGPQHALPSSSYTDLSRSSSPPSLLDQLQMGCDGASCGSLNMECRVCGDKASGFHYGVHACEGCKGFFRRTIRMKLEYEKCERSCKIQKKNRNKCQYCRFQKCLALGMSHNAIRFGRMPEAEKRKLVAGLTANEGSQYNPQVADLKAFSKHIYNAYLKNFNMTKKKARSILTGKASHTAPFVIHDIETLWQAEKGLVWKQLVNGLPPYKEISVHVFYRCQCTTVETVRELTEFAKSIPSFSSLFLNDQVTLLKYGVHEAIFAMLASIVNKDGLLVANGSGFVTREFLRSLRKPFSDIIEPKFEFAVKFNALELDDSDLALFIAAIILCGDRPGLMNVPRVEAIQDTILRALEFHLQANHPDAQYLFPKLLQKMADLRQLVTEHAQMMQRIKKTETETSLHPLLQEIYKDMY
The experiment is described as follows: Transactivation activity at human PPARdelta expressed in african green monkey CV1 cells after 24 hrs by luciferase reporter gene assay. Format: cell-based, CV-1. On the technique in general: In a reporter assay the amount or activity of a reporter protein is the signal.

The target of experiment [4] is T3, Peroxisome proliferator-activated receptor delta. The experiment in a line: Binding affinity at human GST-tagged PPARdelta ligand binding domain after 1 hr by time-resolved FRET analysis.
In another experiment the test system is Mus musculus. The experiment in a line: Antiobesity activity in high-fat diet fed C57BL/6 mouse assessed as decrease in body weight gain at 10 mg/kg, po QD relative to control. Set-up: scale not given: the % may be the effect or the level left. Type of experiment: functional.

The term EC50 denotes the concentration that produces a half-maximal response. On to `Cc1cc(SC(Cc2c(F)c(F)c(F)c(F)c2F)c2sc(-c3ccc(C(F)(F)F)cc3)nc2C)ccc1OCC(=O)O` (stereo unspecified), for which the EC50 in experiment [1] was above 10 µM; in experiment [2] it was above 10 µM; in experiment [3] it was 0.0081 µM. Moreover, in the experiment listed under Homo sapiens, the Ratio EC50 came out at 10000.

On to `Cc1cc(SC(CCc2ccccc2)c2sc(-c3ccc(C(F)(F)F)cc3)nc2C)ccc1OCC(=O)O` (stereo unspecified), for which the values for the EC50 in experiment [1], in experiment [2] and in experiment [3] were above 10 µM, above 10 µM and 0.0026 µM, respectively.

Take `Cc1cc(SC(C)c2sc(-c3ccc(C(F)(F)F)cc3)nc2C)ccc1OCC(=O)O` (stereo unspecified): the EC50 is above 10 µM in experiment [1], 0.136 µM in experiment [2] and 0.0018 µM in experiment [3].

Turning to `Cc1cc(SC(CCCCCc2ccccc2)c2sc(-c3ccc(C(F)(F)F)cc3)nc2C)ccc1OCC(=O)O` (stereo unspecified), the EC50 in experiment [1] and in experiment [2] was above 10 µM each time.

On to `COc1ccc(CC(Sc2ccc(OCC(=O)O)c(C)c2)c2sc(-c3ccc(C(F)(F)F)cc3)nc2C)cc1` (stereo unspecified), for which the figures for the EC50 in experiment [1], in experiment [2] and in experiment [3] were above 10 µM, above 10 µM and 0.0048 µM, respectively.

As for `Cc1cc(SC(Cc2cc(F)c(F)c(F)c2)c2sc(-c3ccc(C(F)(F)F)cc3)nc2C)ccc1OCC(=O)O` (stereo unspecified), the EC50 in experiment [1] is above 10 µM; in experiment [2] it was above 10 µM; in experiment [3], 0.0067 µM.

In the case of `Cc1cc(SC(Cc2ccc(F)cc2F)c2sc(-c3ccc(C(F)(F)F)cc3)nc2C)ccc1OCC(=O)O` (stereo unspecified), the EC50 in experiment [1] is above 10 µM; in experiment [2], above 10 µM; in experiment [3], 0.0046 µM. Moreover, the Ratio EC50 in the experiment listed under Homo sapiens worked out at 10000.

In the case of `Cc1cc(SC(CC(C)C)c2sc(-c3ccc(C(F)(F)F)cc3)nc2C)ccc1OCC(=O)O` (stereo unspecified), the EC50 in experiment [1] was above 10 µM; in experiment [2], 0.592 µM; in experiment [3], 0.0011 µM.

In experiment [4], `CCCc1c(OCCCSc2ccc(CC(=O)O)cc2Cl)ccc2c(C(F)(F)F)noc12` came in with an EC50 of 0.0079 µM.

As for `Cc1cc(SC(Cc2cccc3ccccc23)c2sc(-c3ccc(C(F)(F)F)cc3)nc2C)ccc1OCC(=O)O` (stereo unspecified), the EC50 is above 10 µM in experiment [1], above 10 µM in experiment [2] and 0.49 µM in experiment [3].

As for `Cc1cc(SC(CCCCCCCCCCc2ccccc2)c2sc(-c3ccc(C(F)(F)F)cc3)nc2C)ccc1OCC(=O)O` (stereo unspecified), the EC50 in experiment [1] and in experiment [2] was above 10 µM in each case.

On to `Cc1cc(SC(Cc2ccc(C(F)(F)F)cc2)c2sc(-c3ccc(C(F)(F)F)cc3)nc2C)ccc1OCC(=O)O` (stereo unspecified), for which the EC50 in experiment [1] is above 10 µM; in experiment [2], above 10 µM; in experiment [3], 0.0094 µM.

Take `Cc1cc(SC(Cc2c(Cl)cccc2Cl)c2sc(-c3ccc(C(F)(F)F)cc3)nc2C)ccc1OCC(=O)O` (stereo unspecified): the EC50 in experiment [1] was above 10 µM; in experiment [2], above 10 µM; in experiment [3], 0.0028 µM. Further, in the experiment filed under Homo sapiens, the Ratio EC50 came to 10000.

For `Cc1cc(SC(c2sc(-c3ccc(C(F)(F)F)cc3)nc2C)C(c2ccccc2)c2ccccc2)ccc1OCC(=O)O` (stereo unspecified), the results for the EC50 in experiment [1], in experiment [2] and in experiment [3] were above 10 µM, above 10 µM and 0.523 µM, respectively.

Take `Cc1cc(SC(CCCCCCCc2ccccc2)c2sc(-c3ccc(C(F)(F)F)cc3)nc2C)ccc1OCC(=O)O` (stereo unspecified): the EC50 in experiment [1] and in experiment [2] was above 10 µM each time.

For `Cc1cc(SC(CCCCc2ccccc2)c2sc(-c3ccc(C(F)(F)F)cc3)nc2C)ccc1OCC(=O)O` (stereo unspecified), the EC50 in experiment [1] and in experiment [2] was above 10 µM each time.

Take `Cc1cc(SC(Cc2c(F)cccc2Cl)c2sc(-c3ccc(C(F)(F)F)cc3)nc2C)ccc1OCC(=O)O` (stereo unspecified): the EC50 in experiment [1] was above 10 µM; in experiment [2] it was above 10 µM; in experiment [3], 0.0012 µM. The Ratio EC50 in the experiment listed under Homo sapiens amounted to 10000.

As to `Cc1cc(SC(Cc2ccc([N+](=O)[O-])cc2)c2sc(-c3ccc(C(F)(F)F)cc3)nc2C)ccc1OCC(=O)O` (stereo unspecified), the EC50 in experiment [1] was above 10 µM; in experiment [2], above 10 µM; in experiment [3], 0.06 µM.

On to `Cc1cc(SC(Cc2c3ccccc3cc3ccccc23)c2sc(-c3ccc(C(F)(F)F)cc3)nc2C)ccc1OCC(=O)O` (stereo unspecified), for which the EC50 in experiment [1] and in experiment [2] was above 10 µM each time.

For `Cc1cc(SC(Cc2ccc(-c3ccccc3)cc2)c2sc(-c3ccc(C(F)(F)F)cc3)nc2C)ccc1OCC(=O)O` (stereo unspecified), the EC50 in experiment [1] was above 10 µM; in experiment [2], above 10 µM; in experiment [3] it was 0.0044 µM.

On to `Cc1cc(SC(Cc2c(F)cccc2C(F)(F)F)c2sc(-c3ccc(C(F)(F)F)cc3)nc2C)ccc1OCC(=O)O` (stereo unspecified), for which the EC50 in experiment [1] is above 10 µM; in experiment [2], above 10 µM; in experiment [3] it was 0.0012 µM. The Ratio EC50 in the experiment filed under Homo sapiens came to 10000. Moreover, the Activity in the experiment with Mus musculus worked out at 24%.

Take `Cc1cc(SC(CCCc2ccccc2)c2sc(-c3ccc(C(F)(F)F)cc3)nc2C)ccc1OCC(=O)O` (stereo unspecified): the EC50 in experiment [1] and in experiment [2] was above 10 µM throughout.

In the case of `Cc1cc(SC(CC2CC2)c2sc(-c3ccc(C(F)(F)F)cc3)nc2C)ccc1OCC(=O)O` (stereo unspecified), the results for the EC50 in experiment [1], in experiment [2] and in experiment [3] were above 10 µM, 0.861 µM and 0.0011 µM, respectively.

As to `Cc1cc(SC(Cc2c(F)cccc2F)c2sc(-c3ccc(C(F)(F)F)cc3)nc2C)ccc1OCC(=O)O` (stereo unspecified), the EC50 in experiment [1] was above 10 µM; in experiment [2] it was above 10 µM; in experiment [3] it was 0.0021 µM. In the experiment listed under Homo sapiens, the Ratio EC50 turned out to be 10000. Moreover, in the experiment with Mus musculus, the Activity stood at 35%.

In the case of `Cc1cc(SC(Cc2cc(F)ccc2F)c2sc(-c3ccc(C(F)(F)F)cc3)nc2C)ccc1OCC(=O)O` (stereo unspecified), the EC50 is above 10 µM in experiment [1], above 10 µM in experiment [2] and 0.0167 µM in experiment [3]. In the experiment filed under Homo sapiens, the Ratio EC50 worked out at 10000.
